“And” between values parts separate entries of the source, which are not always exact repeats. Equal entries are not always repeated. “Also recorded” adds a separate entry of the source.
Tests used:
p-BTK(Y233) = target: T1, p-BTK(Y233) (Mus musculus, UniProt P35991); assay: Splenic p-BTK(Y233) level in mice after single RC-1 injection (western blot); format: in vivo, ICR mice; conditions: for p-BTK(Y223) level, mean: Figure 5d, DMSO = 100; for p-BTK(Y233) quantification: Supplementary Figure 8, individual animals
T1 construct: from tissue; host or cells: spleen of female ICR mice
T1 sequence (P35991 whole entry): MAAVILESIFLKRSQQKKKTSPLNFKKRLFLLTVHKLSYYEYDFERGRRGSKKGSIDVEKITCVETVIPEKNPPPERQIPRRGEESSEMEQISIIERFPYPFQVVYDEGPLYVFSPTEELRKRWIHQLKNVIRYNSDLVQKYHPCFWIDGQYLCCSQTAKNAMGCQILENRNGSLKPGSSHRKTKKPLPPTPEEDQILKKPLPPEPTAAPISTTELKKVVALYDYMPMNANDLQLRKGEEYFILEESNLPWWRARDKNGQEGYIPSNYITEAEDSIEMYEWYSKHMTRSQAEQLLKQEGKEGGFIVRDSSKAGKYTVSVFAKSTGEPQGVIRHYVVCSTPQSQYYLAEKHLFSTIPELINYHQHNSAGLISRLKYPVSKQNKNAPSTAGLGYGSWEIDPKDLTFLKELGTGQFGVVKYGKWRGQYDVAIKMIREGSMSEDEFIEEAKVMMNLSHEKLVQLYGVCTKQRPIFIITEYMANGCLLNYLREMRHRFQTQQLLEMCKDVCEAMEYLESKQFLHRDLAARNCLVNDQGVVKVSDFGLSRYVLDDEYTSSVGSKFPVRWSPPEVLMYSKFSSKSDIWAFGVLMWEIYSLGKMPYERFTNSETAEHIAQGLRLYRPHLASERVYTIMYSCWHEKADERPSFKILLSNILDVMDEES
Description: (§1) To investigate the protein degradation effect of RC-1 in vivo, mice were subjected to single RC-1 administration at the dose of 50 or 100 mg kg^−1 (i.p.) or seven once-daily RC-1 administration at the dose of 20 mg kg^−1 (i.p.) (n = 2–3). Twenty-four hours after the one-time RC-1 injection or 24 h after the 7th injection, mice were anesthetized with isoflurane and the whole spleen was dissected and stored at −80 °C for western blot analysis of protein level.
(§2) Supplementary Figure 8. Protein degradation by BTK PROTAC RC-1 in mouse spleen. ICR mice were subjected to single IP injection of RC-1 at the dose of 50 mg/kg (n = 4) or 100 mg/kg (n = 3) and spleens were harvested 24 h after injection. (a) The splenic p-BTK(Y233), BTK, IKZF1 and IKZF3 levels were measured with Western blot. (b). Quantification of protein levels shown in (a). Data are presented as mean values ± SEM.
(§3) Asterisks indicate that the differences between samples are statistically significant, using two-tailed, unpaired t- […]
(§4) test (* p < 0.05; significant).
(§5) (1 picture or pasted object on this page, not shown here)

wild-type BTK = target: T2, wild-type BTK (Homo sapiens, UniProt Q06187); assay: BTK degradation in XLA cells overexpressing wild-type BTK (western blot); format: cell-based; conditions: 24 h
T2 construct: expressed in transfected cells; host or cells: XLA cells (gift from Dr. Woyach)
T2 sequence (Q06187 whole entry): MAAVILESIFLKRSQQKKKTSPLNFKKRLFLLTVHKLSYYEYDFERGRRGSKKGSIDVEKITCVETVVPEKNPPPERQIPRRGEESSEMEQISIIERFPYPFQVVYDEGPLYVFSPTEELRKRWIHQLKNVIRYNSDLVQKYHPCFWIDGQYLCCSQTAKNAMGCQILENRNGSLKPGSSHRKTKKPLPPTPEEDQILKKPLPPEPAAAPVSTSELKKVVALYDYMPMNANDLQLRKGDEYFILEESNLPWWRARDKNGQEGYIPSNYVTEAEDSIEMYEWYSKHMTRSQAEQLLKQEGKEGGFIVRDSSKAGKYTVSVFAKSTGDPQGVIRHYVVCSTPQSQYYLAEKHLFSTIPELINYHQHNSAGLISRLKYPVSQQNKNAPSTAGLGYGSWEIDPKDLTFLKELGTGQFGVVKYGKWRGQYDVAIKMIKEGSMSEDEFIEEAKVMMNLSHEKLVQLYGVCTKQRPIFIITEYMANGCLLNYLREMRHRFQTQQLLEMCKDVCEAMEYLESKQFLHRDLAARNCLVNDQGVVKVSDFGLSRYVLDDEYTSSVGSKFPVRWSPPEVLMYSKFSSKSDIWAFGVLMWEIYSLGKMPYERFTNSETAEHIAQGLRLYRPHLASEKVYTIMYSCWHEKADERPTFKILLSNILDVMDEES
Description: XLA cells overexpressing wild-type BTK or mutant C481S BTK were plated at the same cell number and density as the above experiments and were treated with RC-1, IRC-1, or RNC-1 at the dose of 1.6, 8.0, 40, 200, and 1000 nM for 24 h. After completion of treatment, all the cells were collected and processed for western blot analysis.
The collected cells and spleen tissues were lysed in RIPA lysis buffer (50 mM Tris-HCl, pH 7.4, 150 mM NaCl, 1% NP-40, 0.5% sodium deoxycholate, 0.1% SDS) supplemented with Halt™ Protease and Phosphatase Inhibitor Cocktail (Thermo Fisher Scientific, Cat. No. PI78440) immediately before use. Lysates were centrifuged at 15,000 × g for 10 min at 4 °C and the supernatant was quantified for total protein concentration using the Pierce BCA Protein Assay (Thermo Fisher Scientific, Cat. No. 23225). Thirty micrograms of protein were loaded onto sodium dodecyl sulfate−polyacrylamide gel for electrophoresis (Bio-Rad) and transferred onto PVDF membranes (Millipore, Cat. No. IPVH00010). […] Imaging was performed using the ECL Prime chemiluminescent western blot detection reagents (GE Healthcare, Cat. No. RPN2232) by visualization of the blots to X-Ray film or with an Imager (Kindle Biosciences, Cat. No. D1001). All western blots were subsequently processed and quantified with Imager software. Protein level was normalized to β-actin or GAPDH loading controls.

[1] = Pharmacokinetics of RC-1 in mice; format: in vivo, ICR mice
Description: The pharmacokinetic profile of the BTK PROTAC RC-1 was evaluated in female ICR mice (weighing 22-28 g, n = 3). RC-1 was formulated in a […] solvent (30% PEG-400, 5% Tween 80, and 5% DMSO in deionized water) and was administered in a single IP injection (20 mg kg^−1). Blood samples (25 µL) were withdrawn from the tail vein at the time points of 10 min, 30 min, 1 h, 2 h, 4 h, 8 h, and up to 24 h after dosing. The blood samples were collected into 1.5 mL centrifuge tubes coated with 0.5 M EDTA and were immediately centrifuged at 12,000 × g at 4 °C for 15 min. The resultant plasma was extracted with 9 vol of acetonitrile (containing internal standard: 250 nM of RNC-Ctrl) and then were centrifuged at the same conditions described above. The supernatant was stored at −80 °C for liquid chromatography-mass spectrometry analysis. The standard curve was established by serially diluted RC-1 in plasma collected from naïve mice (from 5.0 to 0.003 μg mL^−1, 4-fold dilution). The PK parameters were calculated with the Microsoft Excel PK Solver.

IKZF1 = assay: Splenic IKZF1 level in mice after single RC-1 injection (western blot); format: in vivo, ICR mice; conditions: for IKZF1 level, mean: Figure 5d, DMSO = 100; for IKZF1 quantification: Supplementary Figure 8, individual animals
Description: as §1, §2, §3, §4, §5

[2] = female, mouse, ip, 20 mg kg^−1, i.p., ICR mice, plasma

## CN(CCCNC(=O)CNc1cccc2c1C(=O)N(C1CCC(=O)NC1=O)C2=O)C(C)(C)C=C(C#N)C(=O)N1CCC[C@@H](n2nc(-c3ccc(Oc4ccccc4)cc3)c3c(N)ncnc32)C1 (stereo partly shown) [RC-1]
p-BTK(Y233); 1 injection
  p-BTK(Y223) level, mean: 96.2894
p-BTK(Y233); 7 injections
  p-BTK(Y223) level, mean: 85.9605
p-BTK(Y233); RC-1 50 mg/kg, 50 mg/kg
  p-BTK(Y233) quantification: 61.7244 and 50.2464 and 71.4895 and 26.7569
p-BTK(Y233); RC-1 100 mg/kg, 100 mg/kg
  p-BTK(Y233) quantification: 42.1872 and 10.8062 and 16.7176
wild-type BTK
  BTK degradation (in words): dose-dependent BTK degradation; also recorded: degrades both wild-type BTK and the C481S mutant with similar potency
[1]; [2]
  AUC: 72 µM·h
  Cmax: 20 µM
[1]; female, mouse, plasma, ip, 20 mg kg^−1, i.p., ICR mice, read-out: plasma half-life (t1/2) (converted)
  half-life: 3.4 h
[1]; single i.p. injection 20 mg/kg
  plasma concentration maintained over 24 h: above 200 nM
IKZF1; 1 injection
  IKZF1 level, mean: 82.288
IKZF1; 7 injections
  IKZF1 level, mean: 77.6802
IKZF1; RC-1 50 mg/kg, 50 mg/kg
  IKZF1 quantification: 32.4273 and 61.2234 and 87.896 and 43.9089
IKZF1; RC-1 100 mg/kg, 100 mg/kg
  IKZF1 quantification: 24.57 and 78.1459 and 58.0151
